How the values were obtained:
Test in all cases: relative viability (nuclei count vs DMSO), 5 days (fraction); higher = more cells survive
RU-SKI 43 + Tozasertib = compound: CC[C@@H](C)CNCC(=O)N1CCC2=C([C@@H]1COC3=CC=CC(=C3)C)C=CS2 [RU-SKI 43] + Cc1cc(Nc2cc(N3CCN(C)CC3)nc(Sc3ccc(NC(=O)C4CC4)cc3)n2)n[nH]1 [Tozasertib] (partner 0.1 µM)
Summary of the method: (§1)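 A single step with final 0.05% Triton X-100, 1% formaldehyde and 1 ug/ml Hoechst fixed the cells and stained nuclei 5 days after treatment. Lung cancer cell lines in 1536-well plates had been treated by pin tool the day after seeding with one drug alone or a fixed anchor-drug dose plus five library-drug doses (not always all listed) in √10 steps, and nuclei were counted on 4× images. Relative viability is the ratio of nuclei in treated wells to nuclei in vehicle wells, taken as the median of duplicate plates.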

Irinotecan + Trametinib = compound: CCc1c2c(nc3ccc(OC(=O)N4CCC(N5CCCCC5)CC4)cc13)-c1cc3c(c(=O)n1C2)COC(=O)[C@]3(O)CC [Irinotecan] + CC(=O)Nc1cccc(-n2c(=O)n(C3CC3)c(=O)c3c(Nc4ccc(I)cc4F)n(C)c(=O)c(C)c32)c1 [Trametinib] (partner 0.02 µM)
Summary of the method: as §1

Irinotecan + Pemetrexed = compound: CCc1c2c(nc3ccc(OC(=O)N4CCC(N5CCCCC5)CC4)cc13)-c1cc3c(c(=O)n1C2)COC(=O)[C@]3(O)CC [Irinotecan] + Nc1nc2[nH]cc(CCc3ccc(C(=O)N[C@@H](CCC(=O)O)C(=O)O)cc3)c2c(=O)[nH]1 [Pemetrexed] (partner 0.2 µM)
Summary of the method: as §1

MK-8033 + Dasatinib = compound: Cn1cc(-c2cnc3ccc4ccc(CS(=O)(=O)NCc5ccccn5)cc4c(=O)c3c2)cn1 [MK-8033] + Cc1nc(Nc2ncc(C(=O)Nc3c(C)cccc3Cl)s2)cc(N2CCN(CCO)CC2)n1 [Dasatinib] (partner 0.075 µM)
Summary of the method: as §1

Row | Cell Line | relative viability (RU-SKI 43 + Tozasertib; first compound 0.1 µM) | relative viability (RU-SKI 43 + Tozasertib; first compound 0.3162 µM) | relative viability (RU-SKI 43 + Tozasertib; first compound 1 µM) | relative viability (RU-SKI 43 + Tozasertib; first compound 3.162 µM) | relative viability (RU-SKI 43 + Tozasertib; first compound 10 µM) | relative viability (Irinotecan + Trametinib; first compound 0.6325 µM) | relative viability (Irinotecan + Trametinib; first compound 2 µM) | relative viability (Irinotecan + Trametinib; first compound 6.325 µM) | relative viability (Irinotecan + Trametinib; first compound 20 µM) | relative viability (Irinotecan + Pemetrexed; first compound 0.6325 µM) | relative viability (Irinotecan + Pemetrexed; first compound 2 µM) | relative viability (Irinotecan + Pemetrexed; first compound 6.325 µM) | relative viability (Irinotecan + Pemetrexed; first compound 20 µM) | relative viability (MK-8033 + Dasatinib; first compound 0.02 µM) | relative viability (MK-8033 + Dasatinib; first compound 0.06325 µM) | relative viability (MK-8033 + Dasatinib; first compound 0.2 µM) | relative viability (MK-8033 + Dasatinib; first compound 0.6325 µM) | relative viability (MK-8033 + Dasatinib; first compound 2 µM)
1 | 201T | 0.883 | 1.03 | 0.883 | 0.931 | 0.812 | 0.771 | 0.347 | 0.255 | 0.27 | 0.274 | 0.308 | 0.271 | 0.283 | 0.646 | 0.62 | 0.573 | 0.533 | 0.614
2 | A-427 | 0.226 | 0.165 | 0.23 | 0.21 | 0.196 | 0.719 | 0.657 | 0.365 | 0.175 | 0.884 | 1 | 0.396 | 0.229 | 0.677 | 0.701 | 0.661 | 0.731 | 0.67
3 | ABC-1 | 0.16 | 0.172 | 0.18 | 0.166 | 0.185 |  |  |  |  |  |  |  |  | 0.735 | 0.434 | 0.501 | 0.491 | 0.61
4 | BEN | 0.502 | 0.426 | 0.546 | 0.495 | 0.509 | 1.2 | 0.769 | 0.503 | 0.556 | 0.535 | 0.828 | 0.415 | 0.485 | 0.343 | 0.289 | 0.318 | 0.326 | 0.307
5 | CAL-12T | 0.296 | 0.403 | 0.303 | 0.26 | 0.243 | 0.309 | 0.292 | 0.299 | 0.274 | 1.14 | 0.995 | 0.355 | 0.234 | 0.478 | 0.3 | 0.405 | 0.367 | 0.456
6 | COR-L23 | 0.18 | 0.179 | 0.188 | 0.164 | 0.176 | 0.307 | 0.41 | 0.23 | 0.0821 | 0.181 | 0.178 | 0.204 | 0.165 | 0.458 | 0.427 | 0.522 | 0.466 | 0.489
7 | COR-L 105 | 0.317 | 0.252 | 0.32 | 0.339 | 0.332 | 0.432 | 0.425 | 0.474 | 0.401 | 1.35 | 0.93 | 0.649 | 0.442 | 0.368 | 0.303 | 0.328 | 0.335 | 0.402
8 | ChaGo-K-1 | 0.234 | 0.203 | 0.221 | 0.22 | 0.231 | 0.296 | 0.24 | 0.21 | 0.221 | 0.238 | 0.232 | 0.236 | 0.239 | 0.603 | 0.588 | 0.527 | 0.66 | 0.641
9 | EKVX | 0.354 | 0.379 | 0.374 | 0.372 | 0.31 |  | 0.35 | 0.279 | 0.15 |  | 0.339 | 0.246 | 0.205 | 0.519 | 0.499 | 0.569 | 0.434 | 0.551

From the supplement of paper PMC10307832
